According to paper PMC5071857, “A unique peptide deformylase platform to rationally design and challenge novel active compounds” (Scientific Reports, 2016):
Where two headings read alike, the source gives them in different places.

Legend:
E. coli AG100 = experiment: MIC by microdilution, E. coli AG100; format: cell-based; conditions: 18 h at 37 °C, average of three assays; for MIC: Escherichia coli, AG100, without PMBN; for MIC AG100: with PMBN at 1/5 of its MIC
Excerpt: (§1) Two E. coli strains, one B. subtilis strain, one S. aureus strain, one E. faecalis strain, one S. agalactiae strain and three Enterobacter aerogenes strains previously described were used. Briefly, AG100 was an E. coli wild type strain and AG100A its acrAB^- derivative. EA289 was a Kan^s derivative of an E. aerogenes multi-drug resistant (MDR) clinical isolate overexpressing AcrAB-TolC efflux pumps, and EA294 and EA298 its acrAB^- and tolC^- derivatives respectively. Strains were routinely grown at 37 °C on Luria-Bertani (LB) agar or in Mueller-Hinton II broth (MH), supplemented with kanamycine (50 μg.mL^−1) for AG100A, EA294 and EA298.
(§2) MIC values of antibiotics were determined by the microdilution method in liquid MH media in microplates in the absence or presence of chemosensitizers/modulators (e.g. PMBN, PAβN), as previously described. Permeabilization, blocking of efflux pumps, and isolates with different levels of porin or efflux expression were used to assess the involvement of the membrane barrier in antibiotic activity.
(§3) Susceptibilities were determined in 96-wells microplates with an inoculum of 2 × 10^5 cfu in 200 μL of MH broth containing two-fold serial dilutions of each antibiotics or compounds. Molecules were tested alone or in combination with other molecules in equimolar ratio. MICs were realized in the absence and in the presence of a membrane permeabilizer, the polymyxine B nonapeptide (PMBN) used at 51.2 mg/L (1/5 or 1/10 of its direct MIC previously determined). Actinonin and ciprofloxacin were used as internal antibiotic reference. […] Each test was systematically performed in triplicate. The average of three independent assays is presented in μg/mL in the respective tables.

EcPDF = molecular target: T1, EcPDF (Escherichia coli, UniProt P0A6K3); experiment: PDF inhibition, formate dehydrogenase-coupled spectrophotometric assay (EcPDF); format: biochemical
T1 construct: made in house
Description: (§4) The formate released by the deformylation reaction is used by FDH to convert NAD in NADH, the production of which being measured over time at 340 nm and controlled temperature (37 °C). The 200 μL reaction mixture contained 50 mM HEPES-NaOH pH7.5, 12 mM NAD^+, 4.5 U/mL FDH, 1 mM NiCl2 and PDF enzyme (either 40 nM SaPDF or 10 nM EcPDF or 100 nM AtPDF1B) previously diluted in presence of 0.1 mg/mL BSA. The reaction was started by addition of 1–6 mM Fo-Met-Ala-Ser. Kinetics parameters (kcat, Km) were derived from iterative non-linear least square fits using the Michaelis-menten equation based on the experimental data (Sigma-Plot, Kinetics module).
(§5) 1/KI*app is the slope of the v0/vi curve in function of compound concentration, where v0 and vi are the initial reaction rates in absence and presence of compound, respectively.
(§6) Determination of KI values was performed with a slightly modified protocol: reaction was started by addition of enzyme instead of Fo-Met-Ala-Ser, the latter being directly added to the mixture containing increasing concentrations of each compound. No pre-incubation of enzyme in presence of compound was done. 1/KI is the slope of the v0/vi curve in function of compound concentration, where v0 and vi are the initial reaction rates in absence and presence of compound respectively.

[1] = system: E. coli AG100A (AcrAB- derivative); experiment: MIC by microdilution, E. coli AG100A; format: cell-based; conditions: for MIC: Escherichia coli, 18 h, read-out: MIC AG100A; for MIC AG100A: with PMBN at 1/5 of its MIC, 18 h at 37 °C, average of three assays
Excerpt: as §1, §2, §3

E. faecalis EFA 103.214 = experiment: MIC, E. faecalis EFA 103.214; format: cell-based
Excerpt: as §1, §2, §3

S. aureus SA113 = experiment: MIC, S. aureus SA113; format: cell-based; conditions: Staphylococcus aureus
Excerpt: as §1, §2, §3

[2] = system: E. aerogenes Ea289, MDR strain; experiment: MIC by microdilution, E. aerogenes Ea289; format: cell-based, Enterobacter aerogenes; conditions: for MIC Ea289: +PMBN at 1/5 of its MIC, average of three assays; for MIC: Klebsiella aerogenes, 18 h, read-out: MIC Ea289
Excerpt: as §1, §2, §3

[3] = system: E. aerogenes Ea298, Ea289 derivative tolC-; experiment: MIC by microdilution, E. aerogenes Ea298; format: cell-based, Enterobacter aerogenes; conditions: for MIC Ea298: +PMBN at 1/5 of its MIC, average of three assays; for MIC: Klebsiella aerogenes, 18 h, read-out: MIC Ea298
Excerpt: as §1, §2, §3

AtPDF1B = molecular target: T2, AtPDF1B (Arabidopsis thaliana, UniProt Q9FUZ2); experiment: PDF inhibition, formate dehydrogenase-coupled spectrophotometric assay (AtPDF1B); format: biochemical; conditions: 100 nM AtPDF1B; for IC50: 2 mM Fo-Met-Ala-Ser, 10 min pre-incubation at 37 °C; for Ki: PDFI pre-incubated with enzyme 10 min at 37 °C, read-out: AtPDF1B KI*app
T2 construct: made in house
T2 sequence (Q9FUZ2 83-273): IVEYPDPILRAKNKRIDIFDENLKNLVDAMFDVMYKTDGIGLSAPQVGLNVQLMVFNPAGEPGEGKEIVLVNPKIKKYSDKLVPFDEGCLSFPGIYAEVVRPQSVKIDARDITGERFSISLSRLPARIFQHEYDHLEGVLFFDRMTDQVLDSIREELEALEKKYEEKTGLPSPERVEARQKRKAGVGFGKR
Description: as §4, with “Enzymatic activity was measured by a spectrophotometric assay where peptide deformylase activity is coupled to that of formate dehydrogenase. The formate” for “The formate”
as §5, §6

[4] = system: E. aerogenes Ea294, Ea289 derivative AcrAB-; experiment: MIC by microdilution, E. aerogenes Ea294; format: cell-based, Enterobacter aerogenes; conditions: for MIC Ea294: +PMBN at 1/5 of its MIC, average of three assays; for MIC: Klebsiella aerogenes, 18 h, read-out: MIC Ea294
Excerpt: as §1, §2, §3

SaPDF [5] = molecular target: T3, SaPDF (Streptococcus agalactiae serotype III, UniProt Q8E378, S2A); experiment: biochemical; conditions: for Ki: SaPDF KI, no pre-incubation, assay initiated by addition of enzyme, 40 nM SaPDF, 37 °C; for SaPDF KI/KI*app: enhancement potency (slow tight-binding)
T3 construct: the recombinant protein contains all residues of the 204 amino acids mature protein; made in house; host or cells: E. coli Rosetta 2(DE3)pLysS
Description: as §4, with “Enzymatic activity was measured by a spectrophotometric assay where peptide deformylase activity is coupled to that of formate dehydrogenase. The formate” for “The formate”
as §5, §6

SaPDF [6] = molecular target: T3, SaPDF; experiment: biochemical; conditions: SaPDF KI*app, PDFI pre-incubated with enzyme 10 min at 37 °C, started by 2 mM Fo-Met-Ala-Ser; 40 nM SaPDF
[7] = 10 nM EcPDF, 2 mM Fo-Met-Ala-Ser, 10 min pre-incubation at 37 °C, read-out: IC50 EcPDF
[8] = Enterococcus faecalis, EFA103.214, read-out: MIC E. faecalis EFA 103.214
[9] = EcPDF KI*app, PDFI pre-incubated with enzyme 10 min at 37 °C, started by 2 mM Fo-Met-Ala-Ser, 10 nM EcPDF
[10] = PDFI pre-incubated with enzyme 10 min at 37 °C, started by 2 mM Fo-Met-Ala-Ser, 10 nM EcPDF, read-out: EcPDF KI*app

T1 sequence (P0A6K3 whole entry): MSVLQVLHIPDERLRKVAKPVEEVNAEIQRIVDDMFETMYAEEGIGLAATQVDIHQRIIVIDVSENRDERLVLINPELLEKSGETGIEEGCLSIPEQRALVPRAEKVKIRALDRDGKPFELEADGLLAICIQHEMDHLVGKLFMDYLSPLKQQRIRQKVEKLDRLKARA
T3 sequence (Q8E378 whole entry S2A): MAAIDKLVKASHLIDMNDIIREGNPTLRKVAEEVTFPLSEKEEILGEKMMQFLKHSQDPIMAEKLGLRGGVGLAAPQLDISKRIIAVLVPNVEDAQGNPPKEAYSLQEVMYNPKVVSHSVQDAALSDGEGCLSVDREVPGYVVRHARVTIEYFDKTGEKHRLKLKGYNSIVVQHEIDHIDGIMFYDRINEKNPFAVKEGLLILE

Structure (SMILES) | MIC (E. coli AG100) [µg/mL] | MIC AG100 (E. coli AG100) [µg/mL] | IC50 (EcPDF; [7]) [nM] | MIC [1] [µg/mL] | MIC AG100A [1] [µg/mL] | MIC (E. faecalis EFA 103.214; [8]) [µg/mL] | MIC (S. aureus SA113) [µg/mL] | MIC Ea289 [2] [µg/mL] | MIC [2] [µg/mL] | MIC Ea298 [3] [µg/mL] | MIC [3] [µg/mL] | IC50 (EcPDF) [nM] | Ki (EcPDF; [9]) [nM] | IC50 (AtPDF1B) [nM] | MIC Ea294 [4] [µg/mL] | MIC [4] [µg/mL] | IC50 (SaPDF [5]) [nM] | Ki (SaPDF [6]) [nM] | also measured
CCCCC(CC(=O)NO)c1nc(-c2ccc([N+](=O)[O-])cc2)no1 (stereo not drawn) [AT001] | > 64 | >64 | 160 | > 64 | 32 |  |  |  |  |  |  |  |  |  |  |  |  |  | 
CCCC[C@H](CC(=O)NO)c1nc(-c2ccccc2)co1 [AT003] | > 64 | 64 | 190 | > 64 | 16 | > 64 | > 64 |  |  |  |  |  |  |  |  |  |  |  | 
CCCCC(CC(=O)NO)c1nc(C(=O)OCC)co1 (stereo not drawn) [AT004] | > 64 | >64 | 110 | > 64 | 32 | > 64 | > 64 |  |  |  |  |  |  |  |  |  |  |  | 
CCCCC(CC(=O)NO)c1nc(-c2ccccc2)no1 (stereo not drawn) [AT006] | > 64 | 64 | 155 | > 64 | 32 | > 64 | > 64 |  |  |  |  |  |  |  |  |  |  |  | 
CCCCC(CC(=O)NO)c1nc(-c2ccc(C(F)(F)F)cc2)no1 (stereo not drawn) [AT011] | > 64 | 8 |  | 32 | 4 | > 64 | > 64 | 64 | > 128 | 16 | 128 | 215 ± 17 | 333 ± 13 | 6000 | 16 | 128 | 128 ± 32 | 430 ± 39 | Ki (AtPDF1B; started by 2 mM Fo-Met-Ala-Ser): 5000 nM; Ki (SaPDF [5]): 400 ± 20 nM; SaPDF KI/KI*app (SaPDF [5]): 1
CCCCC(CC(=O)NO)c1nc(Cc2ccc(C)cc2)no1 (stereo not drawn) [AT012] | > 64 | 32 |  | 64 | 8 | > 64 | > 64 |  |  |  |  | 27 ± 3 | 70 ± 8 | 460 ± 22 |  |  | 67 ± 5 | 400 ± 35 | Ki (AtPDF1B; started by 2 mM Fo-Met-Ala-Ser): 625 ± 30 nM
CCCCC(CC(=O)NO)c1nc(Cc2ccc(-c3ccccc3)cc2)no1 (stereo not drawn) [AT014] | > 64 | 64 |  | > 64 | 64 | > 64 | > 64 |  |  |  |  | 25 ± 4 | 66 ± 3 | 550 ± 25 |  |  | 16 ± 2 | 65 ± 10 | Ki (AtPDF1B; started by 2 mM Fo-Met-Ala-Ser): 909 ± 32 nM; Ki (SaPDF [5]): 84 ± 6 nM; SaPDF KI/KI*app (SaPDF [5]): 1
CCCCC(CC(=O)NO)c1nc(Cc2ccc3c(c2)OCO3)no1 (stereo not drawn) [AT016] | > 64 | 64 | 10 ± 1 | 64 | 8 |  | > 64 |  |  |  |  |  |  |  |  |  | 10 ± 2 | 55 ± 5 | MIC (E. faecalis EFA 103.214; Enterococcus faecalis, EFA103.214; read-out: MIC E. faecalis EFA 103.214): > 64 µg/mL; Ki (EcPDF; [10]): 26 ± 5 nM; EcPDF KI/KI*app (EcPDF; enhancement potency (slow tight-binding)): 1; Ki (EcPDF; no pre-incubation, assay initiated by addition of enzyme, 10 nM EcPDF, 37 °C, read-out: EcPDF KI): 25 ± 3 nM; Ki (SaPDF [5]): 67 ± 7 nM; SaPDF KI/KI*app (SaPDF [5]): 1
CCCCC(CC(=O)NO)c1nc(Cc2nc3ccccc3s2)no1 (stereo not drawn) [AT017] | > 64 | 64 | 30 ± 8 | 64 | 8 | > 64 | > 64 |  |  |  |  |  |  |  |  |  | 23 ± 4 | 85 ± 8 | Ki (EcPDF; [10]): 41 ± 3 nM
CCCC[C@H](CC(=O)NO)c1nc(Cc2ccc(C(=O)O)cc2)no1 [AT021] |  |  |  |  |  |  |  |  |  |  |  | 75 ± 2 | 76 ± 5 | 8200 ± 1000 |  |  | 211 ± 10 | 200 ± 10 | Ki (AtPDF1B): ~10000 nM
CC(C)(O/N=C(\C(=O)N[C@@H]1C(=O)N2C(C(=O)[O-])=C(C[n+]3ccccc3)CS[C@H]12)c1csc(N)n1)C(=O)O [Ceftazidim, ceftazidime, reference compound] |  |  |  |  |  |  |  | 64 | > 128 | 64 | > 128 |  |  |  | 64 | > 128 |  |  | 
O=C(N[C@H](CO)[C@H](O)c1ccc([N+](=O)[O-])cc1)C(Cl)Cl [Chloramphenicol, chloramphenicol, reference compound] |  |  |  |  |  |  |  | 8 | > 128 | 4 | 32 |  |  |  | 4 | 32 |  |  | 
O=C(O)c1cn(C2CC2)c2cc(N3CCNCC3)c(F)cc2c1=O [Ciprofloxacin, ciprofloxacin, reference compound] |  |  |  |  |  |  |  | 64 | 64 | 4 | 8 |  |  |  | 8 | 16 |  |  | 
